For 53 compounds, IC50 results are on record in US20230150979A1, “AMIDE-DISUBSTITUTED PYRIDINE OR PYRIDAZINE COMPOUNDS” (BRISTOL-MYERS SQUIBB COMPANY, priority 2019, published 2023).

The subject of this experiment is IFNα-induced STAT phosphorylation (pSTAT5) in human whole blood, CD3 positive population. Nature of the experiment: IFNα-Induced STAT Phosphorylation in Human Whole Blood. To be noted: 1 h incubation with compound, 1000 U/mL recombinant human IFNα A/D for 15 min, pSTAT5 (pY694) median fluorescence in CD3 positive cells, read-out: Human WB IFNα-Induced Stat Phosph. (IC50). In kind it is cell-based. The method, then: IFNα-Induced STAT Phosphorylation in Human Whole Blood
After an hour long incubation with compound, human whole blood (drawn with either EDTA or ACD-A as anti-coagulant) was stimulated with 1000 U/mL recombinant human IFNα A/D (R&D Systems 11200-2) for 15 min. The stimulation was stopped by adding Fix/Lyse buffer (BD 558049). Cells were stained with a CD3 FITC antibody (BD 555916), washed, and permeabilized on ice using Perm III buffer (BD 558050). Cells were then stained with an Alexa-Fluor 647 pSTAT5 (pY694) antibody (BD 612599) for 30 min prior to analysis on the FACS Canto II. The amount of pSTAT5 expression was quantitated by median fluorescence intensity after gating on the CD3 positive population.
As to `[2H]C([2H])([2H])NC(=O)c1nnc(NC(=O)OC)cc1Nc1ccccc1NS(=O)(=O)C1CC1` [Example 5, methyl (5-((2-(cyclopropanesulfonamido)phenyl)amino)-6-((methyl-d3)carbamoyl)pyridazin-3-yl)carbamate], the IC50 came out at 750 nM.

For `[2H]C([2H])([2H])NC(=O)c1nnc(NC(=O)NCCN(C)C)cc1Nc1cccc(-c2ncn(C)n2)c1OC` [Example 75], the 50% inhibitory concentration (IC50) was found to be 470 nM.

As for `[2H]C([2H])([2H])NC(=O)c1nnc(NC(=O)OC)cc1Nc1cccc(-c2noc(CCS(C)(=O)=O)n2)c1OC` [Example 69], the IC50 worked out at 1030 nM. The figure for `[2H]C([2H])([2H])NC(=O)c1nnc(NC(=O)OC)cc1Nc1cccc(-c2noc(CN3CCOC3=O)n2)c1OC` [Example 70] is 1150 nM. On to `[2H]C([2H])([2H])NC(=O)c1nnc(NC(=O)NCC#C)cc1Nc1cccc(-c2ncn(C)n2)c1OC` [Example 11], for which the IC50 turned out to be 60 nM.

Take `[2H]C([2H])([2H])NC(=O)c1nnc(NC(=O)NCCOC)cc1Nc1cccc(-c2ncn(C)n2)c1OC` [Example 27]: the IC50 worked out at 140 nM. Take `[2H]C([2H])([2H])NC(=O)c1nnc(NC(=O)NCCCC)cc1Nc1cccc(-c2ncn(C)n2)c1OC` [Example 23]: the concentration for half-maximal inhibition (IC50) was 150 nM.

In the case of `[2H]C([2H])([2H])NC(=O)c1nnc(NC(=O)N2CCOCC2)cc1Nc1cccc(-c2ncn(C)n2)c1OC` [Example 26], the concentration for half-maximal inhibition (IC50) was 1180 nM.

Regarding `[2H]C([2H])([2H])NC(=O)c1nnc(NC(=O)N2CCNCC2)cc1Nc1cccc(-c2ncn(C)n2)c1OC` [Example 28], the IC50 is more than 10000 nM. `[2H]C([2H])([2H])NC(=O)c1nnc(NC(=O)NCC)cc1Nc1ccccc1S(C)(=O)=O` [Example 15]: the IC50 was 520 nM. In the case of `[2H]C([2H])([2H])NC(=O)c1nnc(NC(=O)OC)cc1Nc1cccc(-c2ncn(C)n2)c1OC` [Example 41] it was 210 nM; in that of `[2H]C([2H])([2H])NC(=O)c1cnc(NC(=O)OC(C)C)cc1Nc1cccc(-c2ncn(C)n2)c1OC` [Example 32], 200 nM; in that of `[2H]C([2H])([2H])NC(=O)c1nnc(NC(=O)N(C)C2CC2)cc1Nc1cccc(-c2ncn(C)n2)c1OC` [Example 46], 2210 nM.

As for `[2H]C([2H])([2H])NC(=O)c1nnc(NC(=O)OC)cc1Nc1cccc(-c2noc(COC)n2)c1OC` [Example 14], the IC50 was found to be 1100 nM. For `COC(=O)Nc1cc(Nc2cccc(-c3ncn(C)n3)c2OC)c(C(N)=O)nn1` [Example 1, Methyl (6-carbamoyl-5-((2-methoxy-3-(1-methyl-1H-1,2,4-triazol-3-yl)phenyl)amino)pyridazin-3-yl)carbamate], the IC50 turned out to be 70 nM. Turning to `[2H]C([2H])([2H])NC(=O)c1nnc(NC(=O)NCC)cc1Nc1cccc(-c2ncn(C)n2)c1OC` [Example 16], the IC50 came to 20 nM.

`[2H]C([2H])([2H])NC(=O)c1nnc(NC(=O)N(C)CC)cc1Nc1cccc(-c2ncn(C)n2)c1OC` [Example 42]: the IC50 stood at 350 nM. In the case of `COC(=O)Nc1cc(Nc2cccc(-c3noc(CN4CCCCS4(=O)=O)n3)c2OC)c(C(N)=O)nn1` [Example 54] it was 30 nM; in that of `[2H]C([2H])([2H])NC(=O)c1nnc(NC(=O)OC)cc1Nc1cccc(-c2noc(CN3CCCCS3(=O)=O)n2)c1OC` [Example 61], 60 nM; in that of `[2H]C([2H])([2H])NC(=O)c1nnc(NC(=O)NC(C)(C)C)cc1Nc1cccc(-c2ncn(C)n2)c1OC` [Example 24], 230 nM. In the case of `[2H]C([2H])([2H])NC(=O)c1nnc(NC(=O)OC)cc1Nc1cccc(-c2noc(CN3CCCS3(=O)=O)n2)c1OC` [Example 68] it was 200 nM; in that of `[2H]C([2H])([2H])NC(=O)c1nnc(NC(=O)N(C)CCC)cc1Nc1cccc(-c2ncn(C)n2)c1OC` [Example 44], 330 nM.

Take `[2H]C([2H])([2H])NC(=O)c1nnc(NC(=O)OC)cc1Nc1cccc(-c2ncc(C(=O)N3CCC3)s2)c1OC` [Example 55]: the IC50 is 760 nM.

`[2H]C([2H])([2H])NC(=O)c1nnc(NC(=O)NCC(C)C)cc1Nc1cccc(-c2ncn(C)n2)c1OC` [Example 36]: the IC50 is 150 nM.

As to `[2H]C([2H])([2H])NC(=O)c1nnc(NC(=O)NC(C)C)cc1Nc1cccc(-c2ncn(C)n2)c1OC` [Example 18], the IC50 worked out at 150 nM.

Turning to `COC(=O)Nc1cc(Nc2cccc(-c3noc(CN4CCN(C(=O)OC)CC4)n3)c2OC)c(C(N)=O)nn1` [Example 60], the IC50 came out at 140 nM.

Regarding `[2H]C([2H])([2H])NC(=O)c1nnc(NC(N)=O)cc1Nc1cccc(-c2ncn(C)n2)c1OC` [Example 7, 4-((2-methoxy-3-(1-methyl-1H-1,2,4-triazol-3-yl)phenyl)amino)-N-(methyl-d3)-6-ureidopyridazine-3-carboxamide], the IC50 was 320 nM.

On to `[2H]C([2H])([2H])NC(=O)c1nnc(NC(=O)Nc2cccc(C)c2)cc1Nc1cccc(-c2ncn(C)n2)c1OC` [Example 35], for which the half-maximal inhibitory concentration (IC50) worked out at 500 nM. Turning to `[2H]C([2H])([2H])NC(=O)c1cnc(NC(=O)NC)cc1Nc1cccc(-c2noc(C)n2)c1OC` [Example 74], the IC50 worked out at 210 nM.

Turning to `[2H]C([2H])([2H])NC(=O)c1cnc(NC(=O)OC)cc1Nc1cccc(-c2nnn(C)n2)c1OC` [Example 38], the IC50 was determined as 130 nM.

Take `COC(=O)Nc1cc(Nc2cccc(-c3noc(C)n3)c2OC)c(C(N)=O)nn1` [Example 67]: the IC50 was determined as 270 nM.

`[2H]C([2H])([2H])NC(=O)c1nnc(NC(=O)OC)cc1Nc1ccccc1S(C)(=O)=O` [Example 4, methyl (6-((methyl-d3)carbamoyl)-5-((2-(methylsulfonyl)phenyl)amino)pyridazin-3-yl)carbamate]: the IC50 was more than 10000 nM. Turning to `[2H]C([2H])([2H])NC(=O)c1cnc(NC(=O)OC)cc1Nc1cccc(-c2noc(C)n2)c1OC` [Example 73], the IC50 was determined as 770 nM. As to `[2H]C([2H])([2H])NC(=O)c1nnc(NC(=O)N(C)Cc2ccco2)cc1Nc1cccc(-c2ncn(C)n2)c1OC` [Example 49], the concentration for half-maximal inhibition (IC50) amounted to 190 nM.

Turning to `[2H]C([2H])([2H])NC(=O)c1nnc(NC(=O)OC)cc1Nc1cccc(-c2noc(C)n2)c1OC` [Example 63], the IC50 was determined as 970 nM. In the case of `[2H]C([2H])([2H])NC(=O)c1nnc(NC(=O)N(C)C)cc1Nc1cccc(-c2ncn(C)n2)c1OC` [Example 22] it was 220 nM; in that of `[2H]C([2H])([2H])NC(=O)c1nnc(NC(=O)N(C)CCOC)cc1Nc1cccc(-c2ncn(C)n2)c1OC` [Example 43], 570 nM. As for `[2H]C([2H])([2H])NC(=O)c1cnc(NC(=O)NCC)cc1Nc1cccc(-c2noc(C)n2)c1OC` [Example 72], the IC50 came to 140 nM.

For `[2H]C([2H])([2H])NC(=O)c1nnc(NC(=O)OC)cc1Nc1cccc(-c2noc(CN3CCN(C(=O)OC)CC3)n2)c1OC` [Example 65], the IC50 amounted to 330 nM. The figure for `[2H]C([2H])([2H])NC(=O)c1nnc(NC(=O)NC2CC2)cc1Nc1cccc(-c2noc(C)n2)c1OC` [Example 77] is 210 nM. In the case of `[2H]C([2H])([2H])NC(=O)c1nnc(N2CCOC2=O)cc1Nc1cccc(-c2ncc(N3CCOC3=O)cn2)c1OC` [Example 20] it was more than 10000 nM.

`[2H]C([2H])([2H])NC(=O)c1cnc(NC(=O)OC)cc1Nc1cccc(-c2ncn(C)n2)c1OC` [Example 30]: the IC50 stood at 100 nM. The figure for `[2H]C([2H])([2H])NC(=O)c1nnc(NC(=O)NC)cc1Nc1cccc(-c2noc(C)n2)c1OC` [Example 3, 4-((2-methoxy-3-(5-methyl-1,2,4-oxadiazol-3-yl)phenyl)amino)-N-(trideuteromethyl)-6-(3-methylureido)pyridazine-3-carboxamide] is 190 nM. Turning to `[2H]C([2H])([2H])NC(=O)c1nnc(NC(=O)NCC)cc1Nc1cccc(-c2noc(C)n2)c1OC` [Example 2, 6-(3-ethylureido)-4-((2-methoxy-3-(5-methyl-1,2,4-oxadiazol-3-yl)phenyl)amino)-N-(trideuteromethyl)pyridazine-3-carboxamide], the half-inhibitory concentration (IC50) stood at 110 nM.

In the case of `[2H]C([2H])([2H])NC(=O)c1cnc(NC(=O)OC)cc1Nc1cccc(-c2noc(CN3CCOCC3)n2)c1OC` [Example 71], the IC50 was found to be 300 nM. The figure for `[2H]C([2H])([2H])NC(=O)c1nnc(NC(=O)Nc2ccccc2)cc1Nc1cccc(-c2ncn(C)n2)c1OC` [Example 34] is 520 nM; for `COC(=O)Nc1cc(Nc2cccc(-c3noc(CN(C)S(C)(=O)=O)n3)c2OC)c(C(N)=O)nn1` [Example 51] it is 90 nM; for `[2H]C([2H])([2H])NC(=O)c1nnc(NC(=O)OC)cc1Nc1cccc(-c2ncc(C(=O)N3CCC(N4CCN(CCO)CC4)CC3)s2)c1OC` [Example 57] it is 250 nM.

For `COC(=O)Nc1cc(Nc2cccc(-c3noc(CN4CCOCC4)n3)c2OC)c(C(N)=O)nn1` [Example 56], the IC50 turned out to be 110 nM.

In the case of `[2H]C([2H])([2H])NC(=O)c1cnc(NC(=O)OCCC)cc1Nc1cccc(-c2ncn(C)n2)c1OC` [Example 50], the IC50 was found to be 150 nM.

For the compound `[2H]C([2H])([2H])NC(=O)c1nnc(NC(=O)OC)cc1Nc1ccccc1NS(C)(=O)=O` [Example 52], the IC50 was more than 10000 nM. With `[2H]C([2H])([2H])NC(=O)c1nnc(NC(=O)N(C)CC(=C)C)cc1Nc1cccc(-c2ncn(C)n2)c1OC` [Example 47], the IC50 came to 430 nM. The figure for `[2H]C([2H])([2H])NC(=O)c1nnc(NC(=O)N(C)CCc2ccccc2)cc1Nc1cccc(-c2ncn(C)n2)c1OC` [Example 39] is 2460 nM.
